According to patent US6867043B2, “Peptides that deliver antisense oligonucleotides which downregulate protein expression in cells” (The Trustees of Columbia University in the City of New York, priority 2001, dated 2005):
Oligonucleotides are written 5' to 3', each unit as a sugar letter and its base; * is a phosphorothioate linkage, no mark a phosphodiester; rarer units and linkages stand in square brackets, end groups in braces. Plain capitals give the bases only. {Fluorescein} = fluorescein label; d = 2'-deoxy (DNA)

Assays:
PKC-α [1] = assay: Western blot of PKC-α protein expression in T24 cells; format: cell-based; settings: for inhibition of PKC-α protein expression (antisense activity), in words: short-peptide experiments, 2 μM oligonucleotide, 25 μM chloroquine preincubation
Experimental: (§1) Experiments using the protamine-NLS peptides to deliver antisense oligonucleotides were performed in T24 bladder carcinoma and PC-3 prostate carcinoma cells. In addition to the 20-mer ISIS 3521, the 18-mer phosphorothioate oligonucleotide G3139 (SEQ ID NO:6) was also employed. G3139 is targeted to the first six codons of the human bcl-2 open reading frame. […] The expression of PKC-α protein was assayed by Western blotting after 24 hr, while the expression of bcl-2 protein in PC3 cells was assayed similarly after a further 48 hr incubation in RPMI media containing 10% FBS. In both cases, the incubations were performed in the continuous presence of the peptide/oligonucleotide complexes.
Treatment of cells with oligonucleotide-peptide complexes: Cells were grown in six-well plates until 65-75% confluent. […] The solution was mixed gently and incubated at room temperature for 30 min to allow oligonucleotide-peptide complexes to form. […] The cells were then incubated at 37° C. for 24 hr (for PKC-α) or re-fed with complete McCoy's 5A media containing 10% FBS and allowed to incubate for an additional 72 hr (for bcl-2) before cell lysis and extract preparation.
(§2) Western Blotting: Cells were treated with peptide-oligodeoxynucleotide complexes, scraped, washed with cold PBS and then extracted in […] of lysis buffer [50 mM Tris-HCl, pH 7.5; 1% NP-40; 0.25% sodium deoxycholate; 150 mM NaCl; 1 mM EGTA; 50 μg/mL Pefablock™ SC; 15 μg/mL aprotinin, leupeptin, chymostatin, and pepstatin A; 1 mM Na3VO4; 1 mM NaF] at 4° C. for 1 hr. Cell debris was removed by centrifugation at 14,000×g for 20 min at 4° C. Protein concentrations were determined using the Bio-Rad protein assay system (Bio-Rad Laboratories, Richmond, Calif.).
Aliquots of cell extracts containing 20-30 μg of protein were resolved by 10% or 12% SDS-polyacrylamide gel electrophoresis and transferred to Hybond ECL filter paper (Amersham, Arlington Heights, Ill.). […]

PKC-α [2] = assay: Western blot of PKC-α protein expression in PC3 cells; format: cell-based; settings: for inhibition of PKC-α protein expression, in words: long-peptide experiments, ISIS 3521 0.25-2 μM, ISIS 4559 2 μM, 25 μM chloroquine pre-treatment required; for inhibition of PKC-α protein expression (antisense activity), in words: short-peptide experiments, 2 μM oligonucleotide, 25 μM chloroquine preincubation
Experimental: as §1
Treatment of cells with oligonucleotide-peptide complexes: Cells were grown in six-well plates until 65-75% confluent. The peptides, at the stated peptide/oligonucleotide molar ratios, were diluted in 500 μL of Opti-MEM medium and oligonucleotide was then added up to the required concentration of 2 μM. The solution was mixed gently and incubated at room temperature for 30 min to allow oligonucleotide-peptide complexes to form. […] The cells were then incubated at 37° C. for 24 hr (for PKC-α) or re-fed with complete McCoy's 5A media containing 10% FBS and allowed to incubate for an additional 72 hr (for bcl-2) before cell lysis and extract preparation.
as §2
Aliquots of cell extracts containing 20-30 μg of protein were resolved by 10% or 12% SDS-polyacrylamide gel electrophoresis and transferred to Hybond ECL filter paper (Amersham, Arlington Heights, Ill.). Filters were incubated at room temperature for 1-2 h in Blotto A [5% non-fat milk powder in TBS-T:10 mM Tris-HCl, pH 8.0, 150 mM NaCl, 0.05% Tween 20 (for PKC-α) and 5% BSA in PBS, 0.5% Tween (for Bcl-2)] and then probed overnight at 4° C. with 1:1000 dilution of anti-PKC- or 1:500 dilution of anti-Bcl-2 in Blotto A. After washing in TBS-T or PBS-T buffer (3×7 min, room temperature), filters were incubated for 1 h at room temperature in 5% milk/TBS-T or 5% milk/PBS-T buffer containing a 1:3,000 dilution of peroxidase-conjugated anti-mouse secondary antibody. […]

[3] = test system: T24 bladder carcinoma cells; assay: MTT cellular viability assay of paclitaxel-treated T24 cells; format: cell-based; settings: 3 days paclitaxel, 24 hours treatment, 8 μM peptide / 2 μM oligonucleotide, 25 μM chloroquine pretreatment
Experimental: As a measure of the effectiveness of the peptide-delivered antisense inhibition of PKC-α the cells treated with peptide were exposed to paclitaxel, a compound commonly used in cancer therapy to inhibit microtubule depolymerization.
Cellular viability assay: Cells were seeded in 96-well tissue culture plates and treated the next day with oligonucleotide-peptide complexes for 24 hr. […] The cells were incubated for 4 hr at 37° C., 5% CO2 with 0.5 mg/mL MTT in complete media. An equal volume of solubilization solution (10% SDS in 0.01 M HCl) was then added and allowed to incubate overnight at 37° C. After the formazan crystals were dissolved, the plates were read on a Dynatech MR600 Microplate Reader at 540 nm.
Statistical analysis of the results was performed using the Analysis ToolPack provided by Microsoft Excel. A Student's two-sample t-test, assuming unequal variances, was used to determine the equality of the means of two samples. The confidence level was 0.05.

ISIS 3521 = assay: Fluorescence titration: quenching of peptide Trp fluorescence by bound oligonucleotide; format: binding
Experimental: The interaction of ISIS 3521 (SEQ ID NO:5), a 20mer phosphorothioate antisense oligonucleotide, with the short and long protamine-NLS peptides (s-protamine-NLS and l-protamine-NLS) was evaluated by fluorescence spectroscopy. The peptide contains a single Trp residue (position 8 of the short peptide; SEQ ID NO:2) which can be excited at 290 nm and emits fluorescent light at 330 nm. The ability of a bound oligonucleotide to quench this fluorescent emission constitutes a relatively sensitive probe for the monitoring of molecular interactions.
The titration of a 5 μM solution of s-protamine-NLS (SEQ ID NO:2) with increasing concentrations of ISIS 3521 (SEQ ID NO:5), both in PBS and in Opti-MEM (without serum, to mimic transfection conditions), led to dramatic fluorescence quenching. At least two oligonucleotide binding modes can be easily discerned: At low oligonucleotide concentration (relative to s-protamine-NLS peptide) a plot of the decrease in fluorescence (due to quenching) vs. oligonucleotide concentration fits an equation of the Michaelis-Menton type. […] However, as oligonucleotide concentration is increased, Trp fluorescence continues to decline, but a similar plot no longer fits a Michaelis-Menton-type equation, and the binding becomes increasingly complex. Trp fluorescence is finally completely quenched (i.e., 100%) at a 4:1 molar ratio of peptide/oligonucleotide. […]

T24 cells = assay: Fluorescence confocal microscopy of oligonucleotide delivery to the cell nucleus; format: cell-based; settings: 2 μM 5′-fluorescein-labeled ISIS 3521; 8 μM and 6 μM peptide; T24 cells pretreated with 25 μM chloroquine; 24 hr
Experimental: The ability of the protamine-NLS peptides to deliver the oligonucleotides into the cell nucleus was evaluated by fluorescence confocal microscopy.
Confocal microscopy: Cells were seeded in glass bottom microwells (MatTec Corp., Mass.), and treated with peptide-oligodeoxynucleotide complexes at 37° C. for 24 hr. Cellular internalization was examined using an LSM 410 laser scanning confocal microscope (Zeiss, Thornwood, N.Y.) equipped with a krypton/argon laser and attached to a Zeiss Axiovert 100 TV microscope. The 515-540 nm bandpass for fluorescein was used. Z-series were taken of a 1 to 2 micron optical section at 2 μm intervals. For measurements, a maximum projection of all sections was employed.

bcl-2 = assay: Western blot of bcl-2 protein expression in PC3 cells; format: cell-based, human; settings: PC-3 cells; short-peptide experiments; 25 μM chloroquine pretreatment
Experimental: as §1
Treatment of cells with oligonucleotide-peptide complexes: Cells were grown in six-well plates until 65-75% confluent. […]
as §2, with “Cell debris was removed by centrifugation at 14,000×g for 20 min at 4° C.” left out, “Calif.). […]” for “Calif.).”

Row | Compound | inhibition of PKC-α protein expression (antisense activity), in words (PKC-α [1]) | inhibition of PKC-α protein expression, in words (PKC-α [2]) | inhibition of PKC-α protein expression (antisense activity), in words (PKC-α [2]) | cellular viability (reduction in cell proliferation by MTT assay), in words [3] | delivery of fluoresceinated oligonucleotide to the cell nucleus (T24 cells) | other results
1 | 5′-GTTCTCGCTGGTGAGTTTCA-3′ (antisense dG*dT*dT*dC*dT*dC*dG*dC*dT*dG*dG*dT*dG*dA*dG*dT*dT*dT*dC*dA) [ISIS 3521] | completely ineffective | did not have antisense effects | completely ineffective | no effect on cell viability |  | 
2 | RRRRRRWGRRRRRRPKKKRKV [s-protamine-NLS, peptide with shorter protamine fragment and SV40 large T-antigen nuclear localization signal] |  |  |  | no effect on cell viability | effectively delivered fluoresceinated oligonucleotide to the cell nucleus | Kd (ISIS 3521; 5 μM s-protamine-NLS titrated with ISIS 3521, low oligonucleotide concentration, R^2=0.99, read-out: Kd from Lineweaver-Burke (double reciprocal) plot of fluorescence quenching): 80 nM; Trp fluorescence quenched (ISIS 3521; at a 4:1 molar ratio of peptide/oligonucleotide): 100%
3 | 5′-fluorescein-labeled ISIS 3521: ISIS 3521 labeled with fluorescein at the 5′ end, for confocal microscopy (antisense {Fluorescein}-dG*dT*dT*dC*dT*dC*dG*dC*dT*dG*dG*dT*dG*dA*dG*dT*dT*dT*dC*dA) |  |  |  |  | internalized poorly | 
4 | l-protamine-NLS: long Arg-rich protamine fragment peptide with C-terminal SV40 large T-antigen nuclear localization signal (RRRRSRRRRRRFGRRRRRRVWRRRRPKKKRKV; NOVEL PEPTIDE - SV40/PROTAMINE SOURCE) |  | no effect |  |  |  | inhibition of PKC-α protein expression, in words (PKC-α [1]; long-peptide experiments, ISIS 3521 0.25, 0.5, 1 μM, ISIS 4559 2 μM, chloroquine not required): no effect
5 | s-protamine-scrambled NLS: control peptide: short protamine fragment with scrambled NLS sequence (RRRRRRWGRRRRRRPKGKRKV; CONTROL PEPTIDE) |  |  |  |  | also promotes the delivery of the oligonucleotide to the nucleus | 
6 | CCN(CC)CCCC(C)Nc1ccnc2cc(Cl)ccc12 (stereo not drawn) [chloroquine] | did not downregulate PKC-α expression |  | did not downregulate PKC-α expression |  |  | inhibition of Bcl-2 expression (antisense activity), in words (bcl-2): totally inactive
